# Structures can show the parent of a compound that is named as a salt.
# Key:
# human His-PIM1 [2-313] = molecular target: T1, human His-PIM1 [2-313] (Homo sapiens, UniProt P11309); assay: PIM1 in-vitro mobility shift assay (Caliper LC3000, FL-Ahx-Bad phosphorylation); assay type: biochemical; details: 1.5 h; percent inhibition at 0.3 uM compound; read-out: PIM1 % I at 0.3 uM
# T1 construct: purified human His-PIM1 [2-313] enzyme; His (N); purchased University of Dundee, Scotland; host or cells: baculovirus system
# T1 sequence (P11309 2-313): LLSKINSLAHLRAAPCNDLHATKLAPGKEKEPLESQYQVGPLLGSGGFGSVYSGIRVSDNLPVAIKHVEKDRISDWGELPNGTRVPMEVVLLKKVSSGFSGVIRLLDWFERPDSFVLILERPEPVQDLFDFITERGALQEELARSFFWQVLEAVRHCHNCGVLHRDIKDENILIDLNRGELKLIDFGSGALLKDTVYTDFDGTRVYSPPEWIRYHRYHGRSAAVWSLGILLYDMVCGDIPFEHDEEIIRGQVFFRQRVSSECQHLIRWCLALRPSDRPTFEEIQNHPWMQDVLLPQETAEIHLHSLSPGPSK
# In short: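 Compound preincubated 20 min at 25 °C with 2.4 nM PIM1, 3.6 µM FL-Ahx-Bad peptide and 240 µM ATP (1.2× mix concentrations). Reaction started with 24 mM MgCl2 mix, run 90 min at 25 °C, EDTA-stopped. Phospho/unphospho peptide separated by microfluidic mobility shift; percent inhibition from ratiometric turnover.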
# human His-PIM2 [23-299] = molecular target: T2, human His-PIM2 [23-299] (Homo sapiens, UniProt Q9P1W9); assay: PIM2 in-vitro mobility shift assay (Caliper LC3000, FL-Ahx-Bad phosphorylation); assay type: biochemical; details: 1.5 h; percent inhibition at 0.3 uM compound; read-out: PIM2 % I at 0.3 uM
# T2 construct: purified human His-PIM2 [23-299] enzyme; His (N); host or cells: E. coli
# T2 sequence (Q9P1W9 23-299): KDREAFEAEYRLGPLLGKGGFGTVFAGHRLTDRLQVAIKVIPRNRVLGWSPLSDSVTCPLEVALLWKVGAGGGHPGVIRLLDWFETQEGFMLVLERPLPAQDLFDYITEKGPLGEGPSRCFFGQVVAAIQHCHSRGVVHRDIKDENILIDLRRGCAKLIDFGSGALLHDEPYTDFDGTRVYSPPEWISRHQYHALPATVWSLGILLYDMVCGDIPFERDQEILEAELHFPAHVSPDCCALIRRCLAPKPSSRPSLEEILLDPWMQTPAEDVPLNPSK
inhibition at 0.3 µM (human His-PIM1 [2-313]) [%],inhibition at 0.3 µM (human His-PIM2 [23-299]) [%],SMILES
> 95,> 95,"NCCC(=O)N1CCN(c2c(Cl)cccc2/C=C2\SC(=O)NC2=O)CC1 [Example 95, (Z)-5-(2-(4-(3-aminopropanoyl)piperazin-1-yl)-3-chlorobenzylidene)thiazolidine-2,4-dione hydrochloride]"
> 95,> 95,"CNC1CN(c2c(Cl)cccc2/C=C2\SC(=O)NC2=O)CCC1C (stereo not shown) [Example 122U, (Z)-5-(3-chloro-2-(4-methyl-3-(methylamino)piperidin-1-yl)benzylidene)thiazolidine-2,4-dione hydrochloride]"
93,88.1,"COc1cc(/C=C2\SC(=O)NC2=O)c(N2CCC(NCCO)C2)cc1OC (stereo not shown) [Example 132, (Z)-5-(2-(3-(2-hydroxyethylamino)pyrrolidin-1-yl)-4,5-dimethoxybenzylidene)thiazolidine-2,4-dione]"
> 95,> 95,"O=C1NC(=O)/C(=C/c2ccccc2N2CCN(C(=O)C3CCCNC3)CC2)S1 (stereo not shown) [Example 116, 5-(2-(4-(piperidine-3-carbonyl)piperazin-1-yl)benzylidene)thiazolidine-2,4-dione hydrochloride]"
> 95,50.1,O=C1NC(=O)/C(=C/c2cc(C(F)(F)F)cc(Cl)c2N2CCC(N3CCCC3)CC2)S1 [Example 10]
> 95,> 95,"COc1cccc(/C=C2\SC(=O)NC2=O)c1N1CCC[C@@H](N)C1 [Example 122E, (R,Z)-5-(2-(3-aminopiperidin-1-yl)-3-methoxybenzylidene)thiazolidine-2,4-dione hydrochloride]"
88.9,48.5,N#CCC(=O)N[C@H]1CCN(c2c(Cl)cccc2/C=C2\SC(=O)NC2=O)C1 [Example 146]
40.1,14.3,"COc1cc(/C=C2\SC(=O)NC2=O)c(N2CCC(O)C2)cc1OC (stereo not shown) [Example 45, (5Z)-5-[2-(3-hydroxypyrrolidin-1-yl)-4,5-dimethoxybenzylidene]-1,3-thiazolidine-2,4-dione]"
> 95,> 95,"COc1cc(/C=C2\SC(=O)NC2=O)c(N2CC[C@H](N)C2)cc1OC [Example 101, (S,Z)-5-(2-(3-aminopyrrolidin-1-yl)-4,5-dimethoxybenzylidene)thiazolidine-2,4-dione hydrochloride]"
11.7,6.1,"CN1CCN(Cc2cccc(/C=C3\SC(=O)NC3=O)c2)CC1 [Example 84E, (Z)-5-(3-((4-methylpiperazin-1-yl)methyl)benzylidene)thiazolidine-2,4-dione]"
34.9,< 5,Cn1cc(C(=O)N[C@H]2CCN(c3c(Cl)cccc3/C=C3\SC(=O)NC3=O)C2)cn1 [Example 141]
88.2,55,"COc1cc(/C=C2\SC(=O)NC2=O)c(N2CC[C@@H](NCCCN)C2)cc1OC [Example 122A, (R,Z)-5-(2-(3-(3-aminopropylamino)pyrrolidin-1-yl)-4,5-dimethoxybenzylidene)thiazolidine-2,4-dione hydrochloride]"
> 95,> 95,"N[C@H]1CCN(c2c(/C=C3\SC(=O)NC3=O)cccc2OCC(F)(F)F)C1 [Example 122Z, (S,Z)-5-(2-(3-aminopyrrolidin-1-yl)-3-(2,2,2-trifluoroethoxy)benzylidene)thiazolidine-2,4-dione hydrochloride]"
> 95,> 95,COc1cc(/C=C2\SC(=O)NC2=O)c(N2CCC(NCCCN)C2)cc1OC (stereo not shown) [Example 126]
> 95,80.9,"CN(C)[C@H]1CCN(c2ccc(Br)cc2C=C2SC(=O)NC2=O)C1 [Example 84M, (S)-5-(5-bromo-2-(3-(dimethylamino)pyrrolidin-1-yl)benzylidene)thiazolidine-2,4-dione]"
> 95,> 95,NCCCN[C@@H]1CCCN(c2c(Cl)cccc2/C=C2\SC(=O)NC2=O)C1 [Example 129B]
58.9,22.2,"COc1cc(/C=C2\SC(=O)NC2=O)c(N2CC[C@H](NC(=O)CCCCN)C2)cc1OC [Example 120, (S,Z)-5-amino-N-(1-(2-((2,4-dioxothiazolidin-5-ylidene)methyl)-4,5-dimethoxyphenyl)pyrrolidin-3-yl)pentanamide hydrochloride]"
59.6,27.6,"Cn1ccc2cc(/C=C3\SC(=O)NC3=O)ccc21 [Example 76, (5Z)-5-[(1-methyl-1H-indol-5-yl)methylene]-1,3-thiazolidine-2,4-dione]"
85,52.1,COc1ccc(OCCCN)c(C=C2SC(=O)NC2=O)c1 [Example 129C]
> 95,77.7,"N[C@H]1CCCN(c2c(Cl)cc(C(F)(F)F)cc2/C=C2\SC(=O)NC2=O)C1 [Example 1, (S,Z)-5-(2-(3-aminopiperidin-1-yl)-3-chloro-5-(trifluoromethyl)benzylidene)thiazolidine-2,4-dione trifluoroacetate]"
6.9,< 5,Cc1noc(C2CCN(c3c(Cl)cc(C(F)(F)F)cc3/C=C3\SC(=O)NC3=O)CC2)n1 [Example 9]
> 95,> 95,"NC[C@@H]1CCN(c2c(Cl)cccc2/C=C2\SC(=O)NC2=O)C1 [Example 122C, (S,Z)-5-(2-(3-(aminomethyl)pyrrolidin-1-yl)-3-chlorobenzylidene)thiazolidine-2,4-dione]"
> 95,> 95,"CC(C)Oc1cccc(/C=C2\SC(=O)NC2=O)c1N1CC[C@H](N)C1 [Example 122P, (S,Z)-5-(2-(3-aminopyrrolidin-1-yl)-3-isopropoxybenzylidene)thiazolidine-2,4-dione hydrochloride]"
81.9,8.5,O=C1NC(=O)/C(=C/c2cc(C(F)(F)F)cc(Cl)c2N2CCC(N3CCOCC3)CC2)S1 [Example 22]
> 95,> 95,"NC(=O)c1ccc(N2CCC[C@@H](N)C2)c(/C=C2\SC(=O)NC2=O)c1 [Example 122AE, (R,Z)-4-(3-aminopiperidin-1-yl)-3-((2,4-dioxothiazolidin-5-ylidene)methyl)benzamide hydrochloride]"
55.1,18.6,Cn1ccc(C(=O)N[C@H]2CCN(c3c(Cl)cccc3/C=C3\SC(=O)NC3=O)C2)n1 [Example 137]
> 95,> 95,"COc1cccc(/C=C2\SC(=O)NC2=O)c1N1CC[C@H](N(C)C)C1 [Example 36, (S,Z)-5-(2-(3-(dimethylamino)pyrrolidin-1-yl)-3-methoxybenzylidene)thiazolidine-2,4-dione]"
> 95,> 95,NCCCN1CCN(c2ccccc2/C=C2\SC(=O)NC2=O)CC1 [Example 127]

SMILES,inhibition at 0.3 µM (human His-PIM1 [2-313]) [%],inhibition at 0.3 µM (human His-PIM2 [23-299]) [%]
"N[C@@H]1CCCN(c2c(Cl)cccc2/C=C2\SC(=O)NC2=O)C1 [Example 122D, (R,Z)-5-(2-(3-aminopiperidin-1-yl)-3-chlorobenzylidene)thiazolidin-2,4-dione hydrochloride]",> 95,> 95
